3 compounds from US4921873A, “Antiviral and antitumor cyclohexadienone compositions” (Harbor Branch Oceanographic Institution, Inc., priority 1985, dated 1990) can be followed below.

One data set relates to HSV-I. Briefly: HSV-I plaque inhibition disk assay (antiviral effectiveness). In kind it is cell-based, herpes simplex-I. Details: key to inhibition of plaque formation: +++: complete inhibition; ++: a few plaques around the outside of well; +: definite inhibition; +/-: questionable inhibition; -: no inhibition. As to the method:
The following assay method was utilized to illustrate the antiviral effectiveness of the compound of Formula II. (1) Remove 75 cm^2 culture flasks from incubator (these were plated the previous week). (11) For assay, add 1×10^6 cells to each well (6 wells per culture dish). Bring each well to 2 ml with fresh medium. (1) Aspirate medium. (2) Add 0.5 of medium containing 200 pfu HSV-I. (3) Incubate […] with a small amount of shaking. (4) Add 2 ml MC-4000 to each well. (5) Place disks on surface and push through (1 mg/disc, 0.5 mg/disc, 0.25 mg/disc, etc. for crude extracts). (6) Incubate 48 hr. (making sure dishes remain level). Day 4: (1) Add 2 ml neutral red medium. (2) Incubate overnight.

The subject of the next data set is cells. In words: Zone of cytotoxicity in antiviral disk assay. Conditions: read at Day 5. The data set is classed as cell-based. The procedure: The following assay method was utilized to illustrate the antiviral effectiveness of the compound of Formula II.
(11) For assay, add 1×10^6 cells to each well (6 wells per culture dish). Bring each well to 2 ml with fresh medium.
(4) Add 2 ml MC-4000 to each well.
(5) Place disks on surface and push through (1 mg/disc, 0.5 mg/disc, 0.25 mg/disc, etc. for crude extracts).
(1) Add 2 ml neutral red medium.

The subject of data set [1] is L-1210 murine leukemia cells. In words: L-1210 mouse leukemia cell cytotoxicity assay. The data set is classed as cell-based. Conditions: L-1210, at 200 μg/ml, in vitro. The procedure: The following assay method was utilized to illustrate the antitumor effectiveness of the compounds of formulas II, IV, V, VI and VII.
L1210 And P388 MOUSE LEUKEMIA CELL CYTOXICITY ASSAY 24-WELL PLATE SCREENING ASSAY AND TUBE ASSAY PROTOCOL
Media--Dulbeccos with glucose and pyruvate (Biologos, Inc) with 10% horse serum, (Biologos, Inc) and 1.0 μg/ml gentamicin (Gibco). Cells--L1210 and P-388 mouse leukemia cells (American Type Culture Collection) in media at a concentration of 5×10^4 cells/ml. Sterile 24-well culture plates (Nunc) for screening or 12×75 mm glass culture tubes (Becton-Dickinson) for tube assay. Microdispenser with 1 to 5 μl increments (Drummond Scientific Co. Broomall Pa). Finnpipette with […] and Finnpipette with 50 to 200 μl increments.
1. A sample of the composition to be assayed is added to each well or tube in an amount of from 200 μg/ml and 100 μg/ml for screening. For DDC of known active compounds use log concentrations from 100 μg/ml to 0.01 μg/ml for range-finding assay; when range has been determined, use five concentrations between highest and lowest active concentrations.
2. Add 2.0 ml of 5×10^4 cell suspension in media to each well or tube. Tubes are loosely covered with parafilm.
3. Incubate in 5% CO2 incubator 48 hours.
4. Visually read plates with inverted microscope, comparing with solvent control. Assign activity as follows: […]

A short description of data set [2]: Stability of isolated alcohol derivative at room temperature. The data set is classed as physicochemical.

Turning to `CC(=O)OCC(Cl)C1=CC(C)(C)C=CC1=O` (stereo not drawn) [Formula II], in the data set on HSV-I (200 pfu, read at Day 5), the “inhibition of plaque formation” value was “++”. The antiviral activity entry in the data set on HSV-I (results at Day 5, in words) is given as “definite antiviral activity”. For the same compound, the “zone of cytotoxicity (diameter)” value in the data set on cells was 16 mm. Moreover, the viability at 200 µg/mL in data set [1] (Mus musculus, L1210, 48 h, read-out: survival) worked out at 100%.
Consider `CC1(C)C=CC(=O)C(C(Cl)CO)=C1` (stereo not drawn) [Formula VIII], for which the decomposition time result in data set [2] is listed as “two”.
As to `CC1(C)C=CC(=O)C(C2CO2)=C1` (stereo not drawn) [Formula VII], the survival in data set [1] (48 hours, 2880 min) is 28%.
